According to article PMC5515982, “Hair analysis for the biomonitoring of pesticide exposure: comparison with blood and urine in a rat model” (Archives of Toxicology, 2016):

Assays:
[1] = Concentration of pesticides and metabolites in plasma of rats after 90-day gavage exposure to a pesticide mixture; assay type: in vivo, rat; conditions: for Slope (linear fit), concentration in plasma versus level of exposure: exposure expressed as mg/kg per day, concentration as ng/mL, detected values only
Experimental: (§1) Eight rats were randomly assigned to each of the experimental groups. A low-calorie water gel that contained the pesticides was administered via gavage to these rats three times per week for 90 days. The doses of the pesticides mixture used for exposure were 4, 10, 20, 40, 100, 200, and 400 µg/kg of body weight. The exposure range was set as follows: The lowest dose was the lowest level allowing the detection of pesticides in hair after a 90-day exposure, based on preliminary experiments not detailed here. Testing lower levels would not have been relevant because some compounds would not be detected anymore (analytical limitation). In addition, for some other compounds, no differences were detected in the current experiment between the lowest level of exposure and the background exposure of the controls. The highest dose was set according to toxicity of compounds, which corresponded to 1/20 of the lowest LD50 (carbofuran). The animals were weighed before each administration in order to adapt the amount of pesticide-containing mixture to the animals’ weight.
(§2) The animals were shaved before the experiment began to ensure that the hair collected at the end of the study accurately reflected the 90-day period of exposure. White and black hairs were collected separately, placed in aluminum foil, and stored at −20 °C until analysis. Blood was collected in EDTA tube from the tail vein, 3 h after oral administration on Day 90. Each sampling (500–750 µL) was immediately centrifuged at 5000×g for 3 min at room temperature, and plasma was separated and stored at −80 °C before analysis. For urine collection, the rats were placed in individual metabolic cages (Type 304 stainless steel, Techniplast, Zwaag, Netherlands) immediately after gavage for 24 h (from Day 88 to Day 89). The urine was collected in refrigerated tubes over a 24-h period and was weighed before storage at −20 °C.
(§3) Depending on the compounds, only parent pesticides, only metabolites, or both parent and metabolites were analyzed in the biological matrices. The chemicals were analyzed as previously described (Chata et al. [2016]; Hardy et al. [2015]). Despite the different nature of the biological matrices analyzed (liquid vs. solid), method protocols were developed to ensure similarity so they could be reliably compared to the information obtained from each matrix, thereby ensuring that differences were not likely attributable to analytical bias. […] Because analytical background noise was absent from the chromatograms because tandem mass spectrometry was used, the approaches based on background noise for determining the limit of detection (LOD) were not applicable. The LOD was therefore determined as the lowest concentration that was detected in the samples analyzed during this study. Selectivity was ensured by analyte retention time and by the quantification transition to confirmation transition ratio that had to be lower than the 20% difference from the ratio obtained with standard compounds. The LOD ranged from 0.02 pg/mg for β-endosulfan to 2.7 pg/mg for dichlorodiphenyltrichloroethane (p,p′-DDT) in hair, from 0.2 pg/mL for trifluralin to 13.6 ng/mL for 2-isopropoxyphenol (2-IPP) in urine, and from 2.4 pg/mL for β-endosulfan to 679 pg/mL for p,p′-DDT in plasma. Because the analysis of parent pesticides and metabolites was conducted on the same hair sample, the addition of parent organophosphate isotope-labeled analog standards was not possible because their degradation into non-labeled dialkyl phosphate (DAP) during the analytical procedure would have hindered the analysis of DAP due to exposure. In hair, only organophosphate metabolites (not parents) were therefore quantified, and only qualitative results were obtained for parents.
(§4) The association between the level of exposure and the analyte concentration in the matrix (i.e., hair, urine, and plasma) was assessed by the Pearson product-moment correlation coefficient (R Pearson). […]

[2] = ref Timchalk et al. [2007], cited from earlier work
[3] = Concentration of pesticides and metabolites in hair of rats after 90-day gavage exposure to a pesticide mixture; assay type: in vivo, rat; conditions: exposure expressed as mg/kg per day, concentration as pg/mg, detected values only
Experimental: as §1, §2, §3, §4

[4] = Influence of hair pigmentation: concentration in white hair versus pigmented hair; assay type: in vivo, rat; conditions: slope close to 1 = poor influence of pigmentation
Experimental: as §2
The influence of hair pigmentation on pesticide incorporation was assessed by comparing the concentration detected in white hair versus pigmented hair which were collected and analyzed separately from each animal. […] For the majority of the chemicals tested during the current study, pigmentation seemed to have a very limited effect on the concentration in hair, and only few compounds seemed to be pigmentation sensitive.

[5] = Concentration of pesticides and metabolites in 24-h urine of rats after 90-day gavage exposure to a pesticide mixture; assay type: in vivo, rat; conditions: for Slope (linear fit), concentration in urine versus level of exposure: exposure expressed as mg/kg per day, concentration as ng/mL, detected values only
Experimental: as §1, §2, §3, §4

SMILES | Mean concentration in plasma ([1]; control group) [ng/mL] | Mean concentration in plasma ([1]; most exposed group) [ng/mL] | Slope (linear fit), concentration in plasma versus level of exposure [1] | Metabolization of the parent compound [2] [h] | Slope (linear fit), concentration in hair versus level of exposure [3] | Slope, concentration in white hair versus pigmented hair [4] | Slope (linear fit), concentration in urine versus level of exposure [5] | Half-life for α-phase in rat blood ([2]; after oral dosing of chlorpyrifos) [min] | Concentration range in urine (detection) ([5]; ND = not detected, whatever the level of exposure)
CCOP(=S)(OCC)Oc1nc(Cl)c(Cl)cc1Cl [Chlorpyrifos] | 0.15 ± 0.01 | 0.41 ± 0.09 | 1.24 | 0.2 |  |  |  |  | 
CCOP(=O)(O)OCC [DEP, diethyl phosphate] |  |  |  |  | 4.54 | 0.892 | 2.0 E + 06 | 12 | 
O=C(O)c1cccc(Oc2ccccc2)c1 [3-PBA, 3-phenoxybenzoic acid] |  |  | 422 |  | 7.08 | 1.070 | 1.5 E + 05 |  | 
O=S1OC[C@@H]2[C@H](CO1)[C@]1(Cl)C(Cl)=C(Cl)[C@]2(Cl)C1(Cl)Cl (stereo partly drawn) [β-Endosulfan, β-endosulfan] |  |  | 1.50 |  | 2.71 | 0.965 |  |  | not detected
N#Cc1nn(-c2c(Cl)cc(C(F)(F)F)cc2Cl)c(N)c1S(=O)(=O)C(F)(F)F [Fipronil sulfone] |  |  | 976 |  | 772 | 1.114 | 10 650 |  | 
